Experimental data as given in US20030170704A1, “Substance capable of controlling the inclusion of exon 10 of the tau gene, and its therapeutic use against tauopathies” (Max-Planck-Gesellschaft Zur Foerd Der Wissen. E.V., priority 1999, published 2003).

Key:
[1] = system: clk2 phosphorylation / exon 10 inclusion of the tau gene; test: Changing clk2 phosphorylation levels by kinase/phosphatase inhibitors; assay type: cell-based
[2] = system: tau exon 10 inclusion (SV10 minigene); test: RT-PCR of tau exon 10 minigene SV10 1:1 co-transfected with splicing regulator cDNA plasmids in COS cells; assay type: cell-based, human; conditions: 1:1 co-transfection, FIG. 4
Experimental: Plasmid DNA was purified by cesium chloride banding (Sambrook et al., 1989). The plasmids obtained in Examples 1 and 2 were introduced into cells by the lipofection method (LT1, Panvera).
Plates (100 mm) that had reached ˜30% confluence were transfected with 10 μg of construct DNA or 5 μg of each plasmid for co-transfections. The medium was changed 16 h after transfection, without glycerol shock.
Total RNA was isolated 48 h post-transfection by the TRIzol method (Life Technologies). […]
The RT-PCR experiments were done twice with the polyA^+ RNAs and with total RNAs from three independent transfections, to ensure reproducibility. […] In FIGS. 1-4, the percent of the 10^+ isoform was calculated by scanning the bands from three independent transfections and measuring the areas under the curves (by the IPLab Gel program from Scanalytics).
RT-PCR was performed in a manner as described in Example 4 (using primer pair: INS1/INS3), except that-mammalian cells were analyzed which had been 1:1 co-transfected with tau exon 10 containing minigene constructs (denoted SV 10) and with plasmids containing cDNA of various plicing regulators. […]

| Compound | controlled change of exon 10 inclusion of the tau gene via clk2 phosphorylation levels [1] | effect on tau exon 10 inclusion (10+/10- isoform ratio by RT-PCR) [2] |
| --- | --- | --- |
| OC[C@H]1O[C@@H](n2cnc3cc(Cl)c(Cl)cc32)[C@H](O)[C@@H]1O [5,6-dichloro-1-b-D-ribofuranosylbenzimidazole] | changing the clk2 phosphorylation levels | – |
| C=C1[C@@H](O)[C@@H]2O[C@]3(CC[C@H](/C=C/[C@@H](C)[C@@H]4CC(C)=C[C@@]5(O[C@H](C[C@@](C)(O)C(=O)O)CC[C@H]5O)O4)O3)CC[C@H]2O[C@@H]1[C@@H](O)C[C@H](C)[C@H]1O[C@@]2(CCCCO2)CC[C@H]1C [okadaic acid] | changing the clk2 phosphorylation levels | – |
| ASF/SF2: serine/arginine-rich (SR) protein splicing regulator, expressed from cDNA under the CMV promoter | – | inhibited |
